Data: patent publication US9055741B2, “Contacting crop plants with compositions” (Rohm and Haas Company, priority 2006, dated 2015)

Tests used:
Type in all cases: in vivo
wheat = assay: Wheat field treatment: yield and frost damage; conditions: for Frost Damage (percentage of barren husks): untreated 21; for Yield: untreated 3890
Experimental: (§1) Spray tank was filled with approximately two-thirds of the total volume of water required. The amount of Powder 1 or Powder 2 was weighed according to the rate and total volume of spray being prepared. The appropriate amount of was calculated to give 1% v/v of total spray volume. Adjuvant 1 was added to the spray tank, which was agitated until the mixture turned milky white. Powder 1 or Powder 2 was added to the spray container, which was then gently (not vigorously) agitated. The remaining water was added, making sure all of the powder was wet and washed off of the sides of the tank (if any had deposited there). The spray tank was then swirled or stirred for at least two minutes (2-5 minutes) to ensure good mixing. Between 5 and 60 minutes thereafter, plants were sprayed with the mixture.
(§2) Flat fan nozzles were used, producing droplet size of 100 to 500 micrometers. Spray rate of mixture was 500 liter per hectare. Backpack sprayer was used. Spraying was performed before 10:00 am.
(§3) Using methods similar to those of Example 1, wheat was sprayed at stage F10.5. Frost damage was assessed by examining the portion of the seed head damaged; the percentage of barren husks is reported. Damage from fusarium disease was assessed as a percentage of seed heads damaged by the disease organism.

Fuji apple trees = assay: Fuji apples: staining after harvest and storage; conditions: 250 ppm, approximately 211 g/ha (520 g/acre) each, Untreated 12
Description: Fuji apple trees were sprayed prior to harvest either one or two times, with spray containing 250 ppm of 1-MCP. Each spraying provided treatment of approximately 211 g/ha ([…]). After harvesting and storage, the apples were inspected for staining.

Soybean plants = assay: Soybean crop yield and protein content; conditions: for Protein %: untreated 36.93/36.87; for Yield: untreated 3607.20/3687.67
Experimental: as §1, §2
Soybean plants were treated using methods similar to those of Example 1. Treatment was performed when the plants were at one or more of the following growth stages: R2, R3, and R5.5.

cotton = assay: Cotton field treatment: lint yield; conditions: UTC 228.0, Adjuvant 1 only 245.1
Experimental: as §1, §2
Using methods similar to those of Example 1, cotton was also tested. Each treated group of plants was treated either two or three times, as follows:
The crop yield was assessed as the weight of lint per hectare. Treatment types, treatment amounts (grams of AI per hectare), and results were as follows. Many of the treatments lead to improvements in the yield of lint.

fusarium disease = assay: Wheat field treatment: damage from fusarium disease; conditions: untreated 6
Experimental: as §1, §2, §3

[1] = system: Golden Delicious apple trees; assay: Golden Delicious fruit drop after pre-harvest spray; conditions: NAA 20 ppm, AVG 125 ppm, Powder 1 375 g AI/ha
Experimental: as §1, §2
Using methods similar to those of Example 1, Golden Delicious apple trees were sprayed one week before the apples would normally be harvested for commercial use. The apples were left on the trees to observe postharvest drop. The spray containing Powder 1 was used to give 375 gram of AI per hectare. NAA was used at 20 ppm, and AVG was used at 125 ppm. […]

[2] = 1 g/ha, timing R2, R3, and R5.5
[3] = 10 g/ha, timing R2, R3, and R5.5
[4] = 30 g/ha, timing R2, R3, and R5.5
[5] = dosage Exaggerated 1, every 2 weeks
[6] = dosage Exaggerated 2, every 2 weeks

In the case of `CC1=CC1` [1-MCP, 1-methylcyclopropene], the “Frost Damage (percentage of barren husks)” value (wheat; 10 g/ha AI at stage F10.5) is reported as 6%, the Yield (wheat; 10 g/ha AI at stage F10.5) is reported as 4458 kg dry weight/ha and the “Frost Damage (percentage of barren husks)” value (wheat; 25 g/ha AI at stage F10.5) is reported as 3%. The Yield (wheat; 25 g/ha AI at stage F10.5) was 4522 kg dry weight/ha, the “% Staining” value (Fuji apple trees; 1 spray application) was 8.5% and the “% Staining” value (Fuji apple trees; 2 spray applications) was 3%. For the same compound, the Protein % (Soybean plants; [2]) was 38.4%, the Yield (Soybean plants; [2]) was 3955.68 kg/ha and the Protein % (Soybean plants; 1 g/ha, timing R2) was 37.88%. It also gave a Yield (Soybean plants; 1 g/ha, timing R2) of 3691.44 kg/ha, a Protein % (Soybean plants; 1 g/ha, timing R2 and R3) of 37.85% and a Yield (Soybean plants; 1 g/ha, timing R2 and R3) of 3786.48 kg/ha. For the same compound, the Protein % (Soybean plants; 1 g/ha, timing R2 and R5.5) was 38.45%, the Yield (Soybean plants; 1 g/ha, timing R2 and R5.5) was 3704.04 kg/ha and the Protein % (Soybean plants; 1 g/ha, timing R3) was 37.89%. It also gave a Yield (Soybean plants; 1 g/ha, timing R3) of 3795.48 kg/ha, a Protein % (Soybean plants; 1 g/ha, timing R3 and R5.5) of 38.75% and a Yield (Soybean plants; 1 g/ha, timing R3 and R5.5) of 3763.80 kg/ha. It also gave a Protein % (Soybean plants; 1 g/ha, timing R5.5) of 38.25%, a Yield (Soybean plants; 1 g/ha, timing R5.5) of 3659.76 kg/ha and a Protein % (Soybean plants; [3]) of 37.87%. The Yield (Soybean plants; [3]) was 4119.48 kg/ha, the Protein % (Soybean plants; 10 g/ha, timing R2) was 37.67% and the Yield (Soybean plants; 10 g/ha, timing R2) was 3671.64 kg/ha. It also gave a Protein % (Soybean plants; 10 g/ha, timing R2 and R3) of 38.27%, a Yield (Soybean plants; 10 g/ha, timing R2 and R3) of 3872.84 kg/ha and a Protein % (Soybean plants; 10 g/ha, timing R2 and R5.5) of 38.63%. The Yield (Soybean plants; 10 g/ha, timing R2 and R5.5) was 3817.80 kg/ha, the Protein % (Soybean plants; 10 g/ha, timing R3) was 38.64% and the Yield (Soybean plants; 10 g/ha, timing R3) was 3757.68 kg/ha. It also gave a Protein % (Soybean plants; 10 g/ha, timing R3 and R5.5) of 38.3%, a Yield (Soybean plants; 10 g/ha, timing R3 and R5.5) of 3791.52 kg/ha and a Protein % (Soybean plants; 10 g/ha, timing R5.5) of 38.32%. The Yield (Soybean plants; 10 g/ha, timing R5.5) was 3721.32 kg/ha, the Protein % (Soybean plants; [4]) was 37.48% and the Yield (Soybean plants; [4]) was 4347.00 kg/ha. The Protein % (Soybean plants; 30 g/ha, timing R2) was 38.08%, the Yield (Soybean plants; 30 g/ha, timing R2) was 3702.24 kg/ha and the Protein % (Soybean plants; 30 g/ha, timing R2 and R3) was 36.73%. For the same compound, the Yield (Soybean plants; 30 g/ha, timing R2 and R3) was 4118.76 kg/ha, the Protein % (Soybean plants; 30 g/ha, timing R2 and R5.5) was 38.56% and the Yield (Soybean plants; 30 g/ha, timing R2 and R5.5) was 3844.44 kg/ha. For the same compound, the Protein % (Soybean plants; 30 g/ha, timing R3) was 38.33%, the Yield (Soybean plants; 30 g/ha, timing R3) was 3747.24 kg/ha and the Protein % (Soybean plants; 30 g/ha, timing R3 and R5.5) was 37.87%. It also gave a Yield (Soybean plants; 30 g/ha, timing R3 and R5.5) of 3946.68 kg/ha, a Protein % (Soybean plants; 30 g/ha, timing R5.5) of 37.58% and a Yield (Soybean plants; 30 g/ha, timing R5.5) of 3817.80 kg/ha. It also gave a Protein % (Soybean plants; [5]) of 38.62%, a Yield (Soybean plants; [5]) of 3923.64 kg/ha and a Protein % (Soybean plants; [6]) of 37.89%. The Yield (Soybean plants; [6]) was 4167.00 kg/ha, the Lint (cotton; 250 g/ha AI, type EB 2) was 245.3 kg/ha and the Lint (cotton; 250 g/ha AI, type EB 3) was 250.2 kg/ha. For the same compound, the Lint (cotton; 250 g/ha AI, type PHS 2) was 230.6 kg/ha, the Lint (cotton; 250 g/ha AI, type PHS 3) was 231.8 kg/ha and the Lint (cotton; 500 g/ha AI, type EB 2) was 234.2 kg/ha. It also gave a Lint (cotton; 500 g/ha AI, type EB 3) of 261.3 kg/ha, a Lint (cotton; 500 g/ha AI, type PHS 2) of 257.6 kg/ha and a Lint (cotton; 500 g/ha AI, type PHS 3) of 262.0 kg/ha. It also gave a Lint (cotton; 1250 g/ha AI, type EB 2) of 235.0 kg/ha, a Lint (cotton; 1250 g/ha AI, type EB 3) of 260.7 kg/ha and a Lint (cotton; 1250 g/ha AI, type PHS 2) of 253.9 kg/ha. For the same compound, the Lint (cotton; 1250 g/ha AI, type PHS 3) was 241.4 kg/ha, the “Disease Damage (percentage of seed heads damaged)” value (fusarium disease; 10 g/ha AI at stage F10.5) was 0.5% and the “Disease Damage (percentage of seed heads damaged)” value (fusarium disease; 25 g/ha AI at stage F10.5) was 3%.

For `O=C(O)Cc1cccc2ccccc12` [NAA, 1-naphthaleneacetic acid], the “number of dropped fruit per tree” value ([1]; day 0 after treatment, UTC 0) was 0, the “number of dropped fruit per tree” value ([1]; day 7 after treatment, UTC 18) was 5 and the “number of dropped fruit per tree” value ([1]; day 21 after treatment, UTC 45) was 20. For the same compound, the “number of dropped fruit per tree” value ([1]; day 28 after treatment, UTC 115) was 65, the “number of dropped fruit per tree” value ([1]; day 35 after treatment, UTC 195) was 118 and the “number of dropped fruit per tree” value ([1]; day 62 after treatment, UTC 30) was 11.
